Measured values published in patent US20240101551A1, “CRYSTAL FORM AND SALT FORM OF BROMINE DOMAIN PROTEIN INHIBITOR AND PREPARATION METHOD THEREFOR” (CHIA TAI TIANQING PHARMACEUTICAL GROUP CO., LTD., priority 2020, published 2024).

Assays:
[1] = Study on stability under influencing factors (high temperature, high humidity, light) of the crystal forms; assay type: physicochemical
Protocol: In order to evaluate the solid stability of the crystal forms of the present application, the stability of each of the crystal form I, the crystal form A, the crystal form D, the crystal form E and the crystal form F under influencing factors (high temperature, high humidity and light) was investigated. Each of the crystal forms was stored under the high temperature condition (60±2° C., open (weighing bottle)), and the high humidity condition (room temperature, 92.5%±5% RH, open (weighing bottle) and packaged) for 5 days, 10 days and 30 days, and under the ICH light condition (5500 Lux, 0.9 w/m^2, closed (weighing bottle) and packaged) for 5 days and 10 days. The inner packaging material of the packaged sample was a medical low-density polyethylene bag, and the outer packaging material is a medical polyester/aluminum/polyethylene composite bag. The samples after the storage were characterized by properties, purity (HPLC), crystal form (XRD) and water content to detect the changes in the crystal form and purity. The results are shown in Tables 8-12 (“^#” indicates the ICH condition).

BRD4 (BD1) = BRD4 (BD1) (Homo sapiens (Human), UniProt O60885); test: In vitro enzymatic activity assay on BRD4 (BD1), HTRF; assay type: binding; conditions: GST-BRD4 (BD1, 44-168 aa)
Protocol: In the present application, the IC50 value of the compound of formula (I) in inhibiting BRD4 (BD1) enzyme binding reaction were determined by homogeneous time resolved fluorescence (HTRF). The compound of formula (I) was serially diluted 5-fold with 100% DMSO starting from 0.2 mM (7 concentrations in total), and then 2 μL of the compound of formula (I) at each concentration was added to 48 μL of a reaction buffer (20 mM HEPES pH 7.5, 150 mM NaCl, 5 mM DTT, 0.005% Tween 20, and 100 μg/mL BSA) for dilution, and mixed well. 2.5 μL of the resulting mixture was added to a 384-well plate (OptiPlate-384, purchased from PerkinElmer), then 5 μL of GST-BRD4 (BD1, 44-168 aa) (final concentration: 1 nM) was added, and the resulting mixture was centrifuged, and fully mixed. […] After being incubated in the incubator for another 1 hour, the fluorescence values (excited at 320 nm, emitted light at 665 nm and 620 nm being detected, and the ratio of the two being the enzyme binding signal) were read on Envision (purchased from PerkinElmer). The binding strength of the compound of formula (I) to BRD4 (BD1) protein was determined respectively at 7 concentrations, and the data were calculated using GraphPad Prism software to obtain the ICso value of the compound of formula (I).

[2] = Animal pharmacokinetic study; assay type: in vivo, rats
Protocol: Three healthy adult male rats that obtained from Beijing Vital River Laboratory Animal Technology Co., Ltd were used for the animal pharmacokinetic experiment. The compound of formula (I) was suspended in 2% absolute ethanol, 5% tween 80, 20% polyethylene glycol 400, and 73% (5% hydroxypropylmethyl cellulose in water) (V/V/V/V) at a concentration of 1 mg/mL. The administration volume was 5 mL/kg, and animals were treated with a single intragastric administration at a dose of 5 mg/kg Animals were fasted overnight prior to the experiment, and the fasting time was from 10 hours before administration to 4 hours after administration. Blood was sampled at 0.25, 0.5, 1, 2, 4, 6, 8 and 24 hours after administration Animals were lightly anesthetized with isoflurane, and approximately 0.4 mL of whole blood was collected from the orbital venous plexus using a glass blood collection tube, and placed in a heparin anticoagulation tube. The sample was centrifuged at 4200 rpm for 5 minutes at 4° C., and then the plasma was transferred to a centrifuge tube and stored at −80° C. until analyzed. In the plasma sample analysis, test compound and internal standard (warfarin or propranolol) were extracted from rat plasma by acetonitrile protein precipitation, and the extracts were analyzed by LC/MS/MS. The measured plasma concentration-time data of the individual animals were analyzed using a non-compartmental model of WinNonlin (version no. 5.2.1; Pharsight) software to give pharmacokinetic parameters as shown in Table 17 below: the maximum (peak) plasma drug concentration C,max; the time to peak Tmax; the half-life T1/2 and the area under the plasma concentration-time curve extrapolated to infinity AUC0-inf.

BRD4 (BD2) = BRD4 (BD2) (Homo sapiens (Human), UniProt O60885); test: In vitro enzymatic activity assay on BRD4 (BD2), HTRF; assay type: binding; conditions: GST-BRD4 (BD2, 349-460 aa)
Protocol: In the present application, the IC50 value of the compound of formula (I) in inhibiting BRD4 (BD2) enzyme binding reaction were determined by homogeneous time resolved fluorescence (HTRF). The compound of formula (I) was serially diluted 5-fold with 100% DMSO starting from 1 mM (7 concentrations in total), and then 2 μL of the compound of formula (I) at each concentration was added to 18 μL of a reaction buffer (20 mM HEPES pH 7.5, 150 mM NaCl, 5 mM DTT, 0.005% Tween 20, and 100 μg/mL BSA) for dilution. After being mixed well, 2 μL of the compound of formula (I) at each concentration was added to 48 μL of the above reaction buffer for dilution, and mixed well (final concentration of the compound of formula (I) in DMSO: 0.1%). […] After being incubated in the incubator for another 1 hour, the fluorescence values (excited at 320 nm, emitted light at 665 nm and 620 nm being detected, and the ratio of the two being the enzyme binding signal) were read on Envision (purchased from PerkinElmer). The binding strength of the compound of formula (I) to BRD4 (BD2) protein was determined respectively at 7 concentrations, and the data were calculated using GraphPad Prism software to obtain the IC50 value of the compound of formula (I).

[3] = Light (ICH, 5500 Lux), closed, 5 days
[4] = Light (ICH, 5500 Lux), closed, 10 days
[5] = 92.5% RH, room temperature, open, 10 days
[6] = 92.5% RH, room temperature, open, 30 days
[7] = rat, po, male rats, single intragastric administration, 5 mg/kg, plasma

Compound | Crystal form change ([1]; Light (ICH), packaged, 10 days) | Impurity content ([1]; Light (ICH), packaged, 10 days) [%] | Water content ([1]; Light (ICH), packaged, 10 days) [%] | Impurity content [1, 3] [%] | Crystal form change [1, 4] | Impurity content [1, 4] [%] | Water content [1, 4] [%] | Impurity content ([1]; starting crystal form) [%] | Water content ([1]; starting crystal form) [%] | Impurity content ([1]; 60° C., open, 5 days) [%] | Crystal form change ([1]; 60° C., open, 10 days) | Impurity content ([1]; 60° C., open, 10 days) [%] | Crystal form change ([1]; 60° C., open, 30 days) | Impurity content ([1]; 60° C., open, 30 days) [%] | further results
Cn1cc(-c2nc(N=S(C)(C)=O)ccc2Oc2ccc(F)cc2F)c2cc[nH]c2c1=O [crystal form A] | Unchanged | 1.32 | 6.6 | 1.32 | Unchanged | 1.35 | 8.1 | 1.30 | 5.8 |  |  |  |  |  | 
Cn1cc(-c2nc(N=S(C)(C)=O)ccc2Oc2ccc(F)cc2F)c2cc[nH]c2c1=O [crystal form F] |  |  |  |  |  |  |  | 0.17 |  | 0.18 | Unchanged | 0.20 | Unchanged | 0.22 | 
Cn1cc(-c2nc(N=S(C)(C)=O)ccc2Oc2ccc(F)cc2F)c2cc[nH]c2c1=O [crystal form D] | Unchanged | 0.08 | 1.2 | 0.11 | Unchanged | 0.09 | 1.1 | 0.05 | 1.4 | 0.19 | Unchanged | 0.27 | Unchanged | 0.44 | Water content ([1]; 60° C., open, 10 days): 1.0%; Water content ([1]; 60° C., open, 30 days): 0.68%; Crystal form change ([1]; 92.5% RH, packaged, 30 days): Unchanged; Impurity content ([1]; 92.5% RH, packaged, 30 days): 0.12%; Water content ([1]; 92.5% RH, packaged, 30 days): 1.0%; Impurity content ([1]; 92.5% RH, room temperature, open, 5 days): 0.07%; Crystal form change [1, 5]: Unchanged; Impurity content [1, 5]: 0.06%; Water content [1, 5]: 2.0%; Crystal form change [1, 6]: Unchanged; Impurity content [1, 6]: 0.07%; Water content [1, 6]: 1.9%
Cn1cc(-c2nc(N=S(C)(C)=O)ccc2Oc2ccc(F)cc2F)c2cc[nH]c2c1=O [Compound of formula (I), 4-{3-(2,4-difluorophenoxy)-6-{[dimethyl(oxo)-λ^6-sulfaneylidene]amino}-pyridin-2-yl}-6-methyl-1,6-dihydro-7H-pyrrolo[2,3-c]pyridin-7-one] |  |  |  |  |  |  |  |  |  |  |  |  |  |  | IC50 (BRD4 (BD1)): 0.64 nM; AUC(0-inf) [2, 7]: 3470 ng·h/mL; Cmax [2, 7]: 372 ng/mL; Tmax [2, 7]: 2.67 h; half-life [2, 7]: 5.25 h; Pharmacokinetic properties (conclusion) ([2]; rats, 5 mg/kg intragastric): good pharmacokinetic properties; IC50 (BRD4 (BD2)): 0.25 nM
Cn1cc(-c2nc(N=S(C)(C)=O)ccc2Oc2ccc(F)cc2F)c2cc[nH]c2c1=O [crystal form E] |  |  |  |  |  |  |  | 0.18 |  | 0.20 | Unchanged | 0.21 | Unchanged | 0.21 | 
